From PMC6792352, “Limited Chemical Structural Diversity Found to Modulate Thyroid Hormone Receptor in the Tox21 Chemical Library” (Environmental Health Perspectives, 2019)
Where a name gives a salt, the structure may show the parent alone.

Assay: in vitro
Details: rat, gh3-tre-luc cells

Compound | CC50 at 24 h (AC50 (uM) modified / 1000) [µM] | other results
CC(C)CC(C)CC(O)CC(C)C (stereo not shown) [2,6,8-Trimethyl-4-nonanol] | > 90 | –
CC(C)CC(=O)CC(C)CC(C)C (stereo not shown) [2,6,8-Trimethyl-4-nonanone] | > 90 | –
CN(C)CCCN(C)CCCN(C)C [2,6,10-Trimethyl-2,6,10-triazaundecane] | > 90 | –
CC(C)(C)C1=CC(=O)C=C(C(C)(C)C)C1=O [2,6-Bis-(1,1-dimethylethyl)-2,5-cyclohexadiene-1,4-dione] | > 90 | –
CCC(C)c1cccc(C(C)CC)c1O (stereo not shown) [2,6-Di(butan-2-yl)phenol] | 72.2 | –
CN(C)Cc1cc(C(C)(C)C)c(O)c(C(C)(C)C)c1 [2,6-Di-tert-butyl-4-[(dimethylamino)methyl]phenol] | 50.7 | –
COc1cc(C(C)(C)C)c(O)c(C(C)(C)C)c1 [2,6-Di-tert-butyl-4-methoxyphenol] | 48.1 | –
CC(C)(C)c1cc([N+](=O)[O-])cc(C(C)(C)C)c1O [2,6-Di-tert-butyl-4-nitrophenol] | – | CC50 at 24 h (AC50 (uM) modified / 1000, Tox21_110001=Tox21_301750, viability, 1 nM T3 present, 24 h): 11 µM
CC(C)(C)c1cccc(C(C)(C)C)c1O [2,6-Di-tert-butylphenol] | > 90 | –
Nc1cccc(N)n1 [2,6-Diaminopyridine] | > 90 | –
Nc1cc(Cl)c(N)c(Cl)c1 [2,6-Dichloro-1,4-benzenediamine] | > 90 | –
Cc1ccc(Cl)c(N)c1Cl [2,6-Dichloro-3-methylaniline] | > 90 | –
O=Cc1c(Cl)cccc1Cl [2,6-Dichlorobenzaldehyde] | > 90 | –
NC(=O)c1c(Cl)cccc1Cl [2,6-Dichlorobenzamide] | > 90 | –
O=S(=O)(Cl)c1c(Cl)cccc1Cl [2,6-Dichlorobenzenesulfonylchloride] | > 90 | –
O=C(O)c1c(Cl)cccc1Cl [2,6-Dichlorobenzoic acid] | > 90 | –
O=C(Cl)c1c(Cl)cccc1Cl [2,6-Dichlorobenzoyl chloride] | > 90 | –
Oc1c(Cl)cccc1Cl [2,6-Dichlorophenol] | > 90 | –
Cc1c(Cl)cccc1Cl [2,6-Dichlorotoluene] | > 90 | –
CCc1cccc(CC)c1N [2,6-Diethylaniline] | > 90 | –
N#Cc1c(F)cccc1F [2,6-Difluorobenzonitrile] | > 90 | –
O=[N+]([O-])c1cc(I)c(O)c(I)c1 [2,6-Diiodo-4-nitrophenol] | 24.5 | –
CC(C)c1cccc(C(C)C)c1N [2,6-Diisopropylaniline] | > 90 | –

Compound | CC50 at 24 h (AC50 (uM) modified / 1000) [µM] | other results
CC(C)c1ccc2cc(C(C)C)ccc2c1 [2,6-Diisopropylnaphthalene] | > 90 | –
COc1cccc(OC)c1C(=O)O [2,6-Dimethoxybenzoic acid] | > 90 | –
C/C=C(C)/C=C/C=C(C)C [2,6-Dimethyl-2,4,6-octatriene] | > 90 | –
CC(C)CCCC(C)(C)O [2,6-Dimethyl-2-heptanol] | > 90 | –
CC(C)CC(O)CC(C)C [2,6-Dimethyl-4-heptanol] | > 90 | –
Cc1cccc(C)c1N [2,6-Dimethylaniline] | > 90 | –
CC(C)=CCCC(C)C=O (stereo not shown) [2,6-Dimethylhept-5-enal] | > 90 | –
Cc1ccc2cc(C)ccc2c1 [2,6-Dimethylnaphthalene] | – | CC50 at 24 h (AC50 (uM) modified / 1000, Tox21_110001=Tox21_200260, viability, 1 nM T3 present, 24 h): > 90 µM
CCC(C)CCCC(C)(C)O (stereo not shown) [2,6-Dimethyloctan-2-ol] | > 90 | –
Cc1cccc(C)c1O [2,6-Dimethylphenol] | > 90 | –
O=C(O)c1ccc2cc(C(=O)O)ccc2c1 [2,6-Naphthalenedicarboxylic acid] | > 90 | –
O=C(O)c1cccc(C(=O)O)n1 [2,6-Pyridinedicarboxylic acid] | > 90 | –
Cc1c(N)cccc1N [2,6-Toluenediamine] | > 90 | –
Cc1cccc2sc3nncn3c12 [2,7,8,9-Tricyclazole] | > 90 | –
CC(=O)Nc1ccc2c(c1)Cc1cc(NC(C)=O)ccc1-2 [2,7-Acetylaminofluorene] | > 90 | –
CC(C)CCC(=O)CCC(C)C [2,8-Dimethylnonan-5-one] | > 90 | –
CCCC(C)c1ccccc1O (stereo not shown) [2-(1-Methylbutyl)phenol] | 54.4 | –
CC(Oc1cc(Cl)c(Cl)cc1Cl)C(=O)O (stereo not shown) [2-(2,4,5-Trichlorophenoxy)propionic acid] | > 90 | –
CC(C)(C)C1(CCc2ccc(Cl)cc2)CO1 (stereo not shown) [2-(2-(4-Chlorophenyl)ethyl)-2-(1,1-dimethylethyl)oxirane] | > 90 | –
NCCOCCO [2-(2-Aminoethoxy)ethanol] | > 90 | –
CCCCOCCOCCO [2-(2-Butoxyethoxy)ethanol] | > 90 | –
CCCCOCCOCCOC(C)=O [2-(2-Butoxyethoxy)ethyl acetate] | > 90 | –
CCCCOCCOCCSC#N [2-(2-Butoxyethoxy)ethyl thiocyanate] | > 100 | –

Compound | CC50 at 24 h (AC50 (uM) modified / 1000) [µM] | other results
CCC(C)C1N=C(C)C(C)S1 (stereo not shown) [2-(2-Butyl)-4,5-dimethyl-3-thiazoline] | > 90 | –
CCOCCOCCO [2-(2-Ethoxyethoxy)ethanol] | > 90 | –
CCOCCOCCOC(C)=O [2-(2-Ethoxyethoxy)ethyl acetate] | > 90 | –
C=CC(=O)OCCOCCOCC [2-(2-Ethoxyethoxy)ethyl prop-2-enoate] | > 90 | –
CCCCC(CC)COCCO (stereo not shown) [2-(2-Ethylhexyloxy)ethanol] | > 90 | –
CCC(C)(C)C1CCCCC1OC(C)=O (stereo not shown) [2-(2-Methylbutan-2-yl)cyclohexyl acetate] | > 90 | –
CC(C)Cc1nccs1 [2-(2-Methylpropyl)thiazole] | > 90 | –
O=[N+]([O-])c1ccccc1CCO [2-(2-Nitrophenyl)ethanol] | > 90 | –
CCCOCCOCCO [2-(2-Propoxyethoxy)ethanol] | > 90 | –
CCC(C)(C)c1cc(-n2nc3ccccc3n2)c(O)c(C(C)(C)CC)c1 [2-(2H-Benzotriazol-2-yl)-4,6-bis(1,1-dimethylpropyl)phenol] | > 90 | –
CC(C)(c1ccccc1)c1cc(-n2nc3ccccc3n2)c(O)c(C(C)(C)c2ccccc2)c1 [2-(2H-Benzotriazol-2-yl)-4,6-bis(1-methyl-1-phenylethyl)phenol] | > 50 | –
Cc1ccc(O)c(-n2nc3ccccc3n2)c1 [2-(2H-Benzotriazol-2-yl)-4-methylphenol] | > 90 | –
c1ccc(CCCc2ccccn2)cc1 [2-(3-Phenylpropyl)pyridine] | > 90 | –
Oc1ccc(Cc2ccccc2O)cc1 [2-(4-Hydroxybenzyl)phenol] | > 90 | –
O=[N+]([O-])c1ccc(CCO)cc1 [2-(4-Nitrophenyl)ethanol] | > 90 | –
CCCCCCCCC=CCCCCCCCC1=NCCN1CCO [2-(8-Heptadecenyl)-2-imidazoline-1-ethanol] | 23.2 | –
CN(C)Cc1ccccc1O [2-((Dimethylamino)methyl)phenol] | > 90 | –
CCC(C)c1ccccc1O (stereo not shown) [2-(Butan-2-yl)phenol] | > 90 | –
O=C1c2ccccc2C(=O)N1CCl [2-(Chloromethyl)-1H-isoindole-1,3(2H)-dione] | > 90 | –
ClCc1ccccn1 [2-(Chloromethyl)pyridine hydrochloride] | > 90 | –
CCCCN(CCO)CCCC [2-(Dibutylamino)ethanol] | > 90 | –
C=C(C)C(=O)OCCN(CC)CC [2-(Diethylamino)ethyl methacrylate] | > 90 | –
CN(C)C(C)(C)CO [2-(Dimethylamino)-2-methylpropan-1-ol] | > 90 | –

Compound | CC50 at 24 h (AC50 (uM) modified / 1000) [µM] | other results
C=CC(=O)OCC[N+](C)(C)C [2-(Dimethylamino)ethyl acrylate methochloride] | > 90 | –
C=CC(=O)OCCN(C)C [2-(Dimethylamino)ethyl acrylate] | > 90 | –
C=C(C)C(=O)OCCN(C)C [2-(Dimethylamino)ethyl methacrylate] | > 90 | –
CCCCCCCCCCCCOCCO [2-(Dodecyloxy)ethanol] | > 90 | –
CCN(CC#N)c1cccc(C)c1 [2-(Ethyl(3-methylphenyl)amino)acetonitrile] | > 90 | –
CCNCCO [2-(Ethylamino)ethanol] | > 90 | –
O=C1c2ccccc2C(=O)N1CO [2-(Hydroxymethyl)-1H-Isoindole-1,3(2H)-dione] | > 90 | –
CC(CO)(CO)CO [2-(Hydroxymethyl)-2-methyl-1,3-propanediol] | > 90 | –
O=[N+]([O-])C(CO)(CO)CO [2-(Hydroxymethyl)-2-nitro-1,3-propanediol] | > 90 | –
CCN(CCO)c1cccc(C)c1 [2-(N-Ethyl-m-toluidino)ethanol] | > 90 | –
Nc1ccccc1S(=O)(=O)c1ccccc1 [2-(Phenylsulfonyl)aniline] | > 90 | –
CC(C)c1ccc2sc3ccccc3c(=O)c2c1 [2-(Propan-2-yl)-9H-thioxanthen-9-one] | > 90 | –
OCCc1ccccn1 [2-(Pyridin-2-yl)ethanol] | > 90 | –
OCCc1ccncc1 [2-(Pyridin-4-yl)ethanol] | > 90 | –
N#CSCSc1nc2ccccc2s1 [2-(Thiocyanomethylthio)benzothiazole] | 3.06 | –
NS(=O)(=O)c1ccccc1OC(F)(F)F [2-(Trifluoromethoxy)benzenesulfonamide] | > 90 | –
CC(C)(C)NCCO [2-(tert-Butylamino)ethanol] | > 90 | –
C=C(C)C(=O)OCCNC(C)(C)C [2-(tert-Butylamino)ethyl 2-methylprop-2-enoate] | > 90 | –
OCCC1CCCCN1 (stereo not shown) [2-?Piperidineethanol] | > 90 | –
CC(=O)Nc1ccccc1O [2-Acetamidophenol] | > 90 | –
CC(=O)Oc1ccc([N+](=O)[O-])cc1CCl [2-Acetoxy-5-nitrobenzyl chloride] | 67 | –
CC(=O)Nc1ccc2c(c1)Cc1ccccc1-2 [2-Acetylaminofluorene] | – | CC50 at 24 h (AC50 (uM) modified / 1000, Tox21_110001=Tox21_200830, viability, 1 nM T3 present, 24 h): > 90 µM
